Consider 83 molecules from a melting point compilation (Tetko et al.; mined from patent text by program, amines drawn as free bases though some values may be those of a salt).

Bounds are passed on as bounds.

Broadly, the melting point is the temperature of the solid-liquid transition. In turn, `O=[N+]([O-])c1cccc(-c2nnc(NCc3cccc4ccccc34)s2)c1` registered a melting point of 150 to 151 °C.

As for `COc1ccccc1N1CCN(CCn2cnc3sc(C(=O)N(C)C)c(C)c3c2=O)CC1`, the melting point was 188 to 190 °C.

Take `COc1ccc(Cn2c(C(=O)O)c(-c3ccc4c(c3)OCO4)c3cc(OCC(=O)O)ccc32)c(OCC(=O)O)c1`: the melting point fell in the range of 203 to 205 °C.

`CCC(C)C(C)C(=O)Nc1ccc2c(C)cn3c(=O)c(C(=O)Nc4nnn[nH]4)cnc3c2c1` (stereo not drawn): the melting point is more than 300 °C.

`Cc1cc(Br)c2c(c1)N(S(=O)(=O)c1ccc(Cl)cc1)CCO2` had a melting point of 143 to 145 °C.

For `Cc1sc(-c2ccccc2)nc1CCC(=O)c1ccc(CC2SC(=O)NC2=O)s1` (stereo not drawn), the melting point is 164 to 166 °C.

As for `CC(=O)N(C)c1cc(OCc2ccccc2)c2nc(C)n(C)c2c1`, the melting point was in the range of 144 to 149 °C.

As to `FC(F)(F)COC(c1ccc(Cl)c2nc3n(c12)CCCN3c1ccc(Cl)cc1Cl)C1CC1` (stereo not drawn), the melting point was 143 to 145 °C.

In turn, `Cc1cc(N)nc(CCCCNC(=O)Cc2ccc3c(c2)OCO3)c1` yielded a melting point of 56 to 58 °C.

Regarding `COC(=O)C1=C(C)NC(C)=C(C(=O)O)C1c1cccc([N+](=O)[O-])c1` (stereo not drawn), the melting point lay within 196 to 197 °C.

In turn, `C=C(C)C(=O)OCCOCc1ccc(O)c2ncccc12` returned a melting point of 90 to 91 °C.

Take `COCCOC(=O)c1ccccc1Nc1nc(Nc2cc3c(cc2OC)CCN(CC(C)O)CC3)ncc1Cl` (stereo not drawn): the melting point amounted to 100 °C.

As for `O=C(/C=C1\CCc2ccc(F)cc21)NC1CC1`, the melting point fell in the range of 124 to 127 °C.

The molecule `CCNC(=O)CC(Cc1cccc2ccccc12)C(=O)NC(Cc1c[nH]cn1)C(=O)NC(CC(C)C)C(O)C(=O)OC` (mixture of isomers) had a melting point of 103 to 108 °C.

For the molecule `CCOC(=O)C1Cc2ccccc2N1C(=O)C(C)Br` (stereo not drawn), the melting point lay within 101 to 103 °C.

`Cc1oc(-c2cc3ccccc3s2)nc1COc1ccc(CCCC2OC(=O)NC2=O)cc1` (stereo not drawn) had a melting point of 154 to 155 °C.

Turning to `Cc1cc(-n2nc(C(F)(F)F)cc2-c2ccc(-c3cscn3)cc2)ccc1S(C)(=O)=O`, the melting point was 147 to 149 °C.

Regarding `COC(CNC(=S)N1CCN(c2ccc(O)cc2)CC1)OC`, the melting point is 161 °C.

`O=C(c1ccc(F)cc1)N1CCN(S(=O)(=O)c2ccc(Nc3ccnc4cc(C(F)(F)F)ccc34)cc2)CC1` had a melting point of 172 to 174 °C.

`COc1cc(NC(=O)c2cc(C(C)C)c(C(C)C)o2)ccc1C(=O)O` displayed a melting point of 136 to 137 °C.

`CC(=O)OC1CCC2(C)C(CCC3C2CCC2(C)C(C(C)CCCI)CCC32)C1` (stereo not drawn) showed a melting point of 140 to 146 °C.

On to `CN(Cc1ccc(NC(=O)C2=Cc3cc(-c4cc5ccccc5s4)ccc3S(=O)(=O)CC2)cc1)C1CCOCC1`, for which the melting point lay in the range of 270 to 271 °C.

`O=C1c2cc(OCc3ccc4ccccc4n3)ccc2CC1Cc1ccccc1` (stereo not drawn) returned a melting point of 104 to 106 °C.

For the molecule `COc1ccc(Cn2c(=O)c(=NNc3ccccc3)c(=O)n(CCC(C)C)c3ccccc32)cc1`, the melting point lay within 189 to 191 °C.

As for `C[C@H](CSC(=O)c1ccccc1)C(=O)N1C(=O)N(Cc2ccccc2)C[C@H]1C(=O)O`, the melting point stood at 145 °C.

`Cc1nn(C)cc1S(N)(=O)=O` gave a melting point of 97 to 105 °C.

`O=C(NCCCN1CCN(c2ncccn2)CC1)NC12CC3CC(CC(C3)C1)C2` gave a melting point of 172 to 173 °C.

`CCOC(=O)/C=C/c1ccc(OC)c(F)c1` displayed a melting point of 39 to 41 °C.

Consider `O=[N+]([O-])c1cnn2c(-c3ccc(C(F)(F)F)cc3)ccnc12`, for which the melting point was in the range of 191 to 193 °C.

Molecule `NCc1c([N+](=O)[O-])ccc(N2CCCC2)c1Cl` registered a melting point of 71 to 73 °C.

`Cn1c(C(F)(F)F)cc(=O)n(-c2cc(OC(=O)OCC(Cl)(Cl)Cl)c(Cl)cc2F)c1=O` had a melting point of 140 to 142 °C.

`N#CN=C(N)NCCCCNC(=O)C1(NC(=O)CCCC(=O)O)Cc2ccccc2C1` registered a melting point of 105 °C.

As to `NS(=O)(=O)c1cc2c(s1)S(=O)(=O)CC(Br)C2O` (stereo not drawn), the melting point lay within 217 to 219 °C.

In turn, `O=c1ccc2cc(-c3ccccc3)ccc2n1O` gave a melting point of 219 to 220 °C.

For the molecule `N=C(N)c1ccc(Cl)cc1`, the melting point lay within 266 to 268 °C.

In the case of `CCCCc1ncc(/C=C/C=C/C(=O)O)n1Cc1ccccc1Cl`, the melting point was 219 to 220 °C.

With `CCOP(=O)(OCC)Oc1c(C2CCCCN2CCCCNC(=O)c2ccc(NC(=O)c3ccc(Cl)cc3)cc2)ccc2c1CCCC2` (stereo not drawn), the melting point came to 200 °C.

Take `COC(=O)NC(=O)Nc1nc2ccccc2s1`: the melting point lay in the range of 338 to 340 °C.

The molecule `COc1cc2cc(C(=O)N3CC(CCl)c4c3cc(N(C)C)c3ccccc43)[nH]c2c(OC)c1OC` (stereo not drawn) showed a melting point of 174 to 175 °C.

`COc1ccc(I)cc1CN` showed a melting point of 95 to 97 °C.

The molecule `COc1cc(N)c(Cl)cc1C(=O)NCC1CCN(CCCCCOc2ccccc2)CC1` registered a melting point of 129 to 132 °C.

Regarding `COc1cc(OC)c2c(=O)[nH]c(-c3ccc(OCCO)c(-c4ccccc4)n3)nc2c1`, the melting point was in the range of 240 to 242 °C.

`CN(c1ccc2ccccc2c1)C(C(=O)O)c1c(Cl)cccc1Cl` (stereo not drawn) gave a melting point of 144 °C.

For the molecule `CCCC(CCC)n1ccc(=O)c2c(Cl)cc(C)nc21`, the melting point lay in the range of 82 to 85 °C.

Molecule `Cc1noc(NS(=O)(=O)c2ccc(NC(=O)NC3CCCCC3)cc2)c1C` gave a melting point of 190 to 195 °C.

`O=C(CI)c1cc(OCc2ccccc2)c(OCc2ccccc2)c(OCc2ccccc2)c1` displayed a melting point of 110 to 112 °C.

For `CC(=O)OC1CCC2(C)C(=CCC3C2CCC2(C)C(n4ccnn4)=CCC32)C1` (stereo not drawn), the melting point fell in the range of 158 to 160 °C.

`COC(=O)c1ccc(SC)c(OC2CCCC2)c1` yielded a melting point of 53 to 55 °C.

`CCCN(CCC)C(=O)Cn1c(-c2ccc(Cl)cc2)nc2cccnc21` returned a melting point of 156 to 157 °C.

Consider `CCNC(=O)/C=C/CSc1nc(N)cc(Cl)n1`, for which the melting point was 160 to 161 °C.

In turn, `CCOc1ccc([C@@H]2CCNC(=O)[C@H]2c2ccccc2)cc1` (relative stereo) showed a melting point of 161 to 162 °C.

`COc1cc(N)c(Cl)cc1C(=O)NCC1CCN(CCCCCC(=O)c2ccc(Cl)cc2Cl)CC1` displayed a melting point of 150 to 155 °C.

The molecule `FC(F)(F)c1cc(I)ccc1-c1ccc(I)cc1C(F)(F)F` gave a melting point of 119 to 120 °C.

Consider `COC(=O)COc1ccc(C(=O)NC(=O)Nc2ccc(C#N)cc2)cc1`, for which the melting point was 204 to 207 °C.

`CCCCCCCCCCCc1nnc2n1-c1sc(CC)cc1C(c1ccc(O)cc1)=NC2` had a melting point of 164 to 166 °C.

On to `C[C@@H](NC(=O)c1csc(-c2cccnc2)n1)[C@](O)(Cn1cncn1)c1ccc(F)cc1F`, for which the melting point is 182 to 183 °C.

For the molecule `COc1cc2c(cc1OC)CN(CC(O)CC1(c3noc4cc(F)ccc34)CCNCC1)CC2` (stereo not drawn), the melting point was in the range of 153 to 154 °C.

As for `O=C(O)c1ccc(C(=O)O)c2c(Br)cccc12`, the melting point fell in the range of 288 to 290 °C.

`OC(=S)CC(c1ccc(OCc2ccc3ccccc3n2)cc1)c1ccc(OCc2ccc3ccccc3n2)cc1` showed a melting point of 175 to 180 °C.

Take `Cn1cc(-c2ncc(-c3ccc4cc(O)ccc4c3)o2)c2ccccc21`: the melting point fell in the range of 188 to 190 °C.

In turn, `O=[N+]([O-])c1cc(F)ccc1NC1CCN(Cc2ccccc2)CC1` registered a melting point of 86 to 87 °C.

`COC1(c2cc(F)cc(Oc3nc(-c4ccccc4)c(-c4ccc(S(N)(=O)=O)cc4)o3)c2)CCOCC1`: the melting point lay within 159 to 161 °C.

For `Clc1ccc(C#Cc2ccc(C#Cc3cc4ccccc4s3)s2)cc1`, the melting point fell in the range of 189 to 191 °C.

`CCc1ccc(C2CCCN2S(=O)(=O)c2ccc(F)cc2)cc1` (racemic): the melting point is 93 °C.

`O=C(O)C1CCN(C(=O)NS(=O)(=O)C=Cc2ccccc2)CC1` displayed a melting point of 179 to 181 °C.

As to `CS(=O)(=O)c1ccc(-c2cc(C(=O)CCCO[N+](=O)[O-])nn2C2CCCCC2)cc1`, the melting point lay within 122 to 124 °C.

`CCOC(=O)c1cccc(NC(=O)NCC(=O)N2[C@@H](C(=O)OCC)CC[C@H]2c2ccccc2)c1` (racemic) registered a melting point of 136 °C.

Molecule `CCOC(=O)c1cc(C(O)(C(F)(F)F)C(F)(F)F)ccc1N` came in with a melting point of 115 to 117 °C.

Consider `S=C(Nc1cnccc1NC1CCCCC1)NC1CCCCC1`, for which the melting point was in the range of 157 to 159 °C.

With `C=C(Nc1nc(-c2ccccc2)c(-c2nc3ccccc3c(=O)n2-c2ccc(C)cc2)s1)c1ccco1`, the melting point was in the range of 231 to 232 °C.

The molecule `O=C(CCCCCCCNC(=O)OCc1ccccc1)Nc1cccc(C(=O)O)c1` showed a melting point of 167 to 168 °C.

`CCOC(=O)Cn1c2ccc(Cl)ccc-2c(C(C)=O)c1=O` showed a melting point of 184 °C.

Regarding `O=C(O)c1cccc(C(CC(=O)c2ccc(F)cc2)CC(=O)c2ccc(F)cc2)c1`, the melting point was in the range of 205 to 207 °C.

`c1ccc2nc(-c3cc4nccnc4[nH]3)ccc2c1` gave a melting point of 293 to 295 °C.

For the molecule `Cn1cc(-c2cccc(N3CCc4c(cc5n4CCCC5)C3=O)c2CO)nc(Nc2ccc3c(c2)CNCC3)c1=O`, the melting point fell in the range of 218 to 220 °C.

Turning to `O=C(CC1=C(n2nc(-c3c(-c4ccccc4)nn4ccccc34)ccc2=O)CCCC1)N1CCCCC1`, the melting point lay in the range of 184 to 185 °C.

Molecule `CC(C)c1ccc(N(Cc2ccc(N(C)C)cc2)C(=O)C2CCCc3cc(OCCN(C)C)ccc32)cc1` (stereo not drawn) showed a melting point of 133 °C.

For the molecule `O=C1NCCN1c1cccc(Cl)c1`, the melting point was 121 to 123 °C.

Consider `CNC(=O)[C@H](C)C[C@H](O)[C@H](CC1CCCCC1)NC(=O)[C@H](Cc1cscn1)NC(=O)[C@@H](CC(=O)N1CCOCC1)Cc1ccccc1`, for which the melting point was 130 to 132 °C.

The molecule `CCOC(=O)N1N=C(c2ccc(N)cc2)c2cc(Br)ccc2CC1C` (stereo not drawn) registered a melting point of 114 to 117 °C.

The molecule `Clc1ccccc1Oc1cnccc1N1CCNCC1` displayed a melting point of 99 to 101 °C.

As for `N#Cc1cnn2c1N(C(=O)CN1CCN(C(=O)OCc3ccccc3)CC1)CC=C2c1cccc(C(F)(F)F)c1`, the melting point lay in the range of 113 to 115 °C.

Molecule `CC(C)(C)c1nc2cc(Cl)c([N+](=O)[O-])cc2s1` came in with a melting point of 65 to 69 °C.
